These results are taken from US20230301968A1 (ZEPHAPHARM LTD, priority 2020, published 2023).

The term hepatocyte CLint denotes the capacity of the preparation to metabolise the compound, expressed as a volume cleared per time. Low values mean greater metabolic stability, high ones faster metabolism. Broadly, the half-life is the time needed for the level to fall by half in the phase considered. The t½ is how long it takes for the measured level to halve.

One data set is described as follows: in vitro. As to conditions: human, hepatocytes; for half-life at 1 µM: t½. Here is the method:
(§1) In each assay, the amount of test compound remaining at each time point was analysed by LC-MS/MS.
(§2) The final incubation volume was 500 µL. […] A positive control compound, ethoxycoumarin, for CYP1A2 (as CYP1A2 substrate) was included. […] The reactions were stopped by transferring 50 µL of incubate to 100 µL acetonitrile containing internal standard at the appropriate time points (0, 5, 10, 20, 40 and 60 min). The termination plates were centrifuged at 2500 rpm at 4° C. for 30 min to precipitate the protein.
(§3) From a plot of In peak area ratio (compound peak area/internal standard peak area) against time, the gradient of the line was determined. Subsequently, half-life (t½) and intrinsic clearance (CLint) were calculated using the equations below: […]

Data set [1] concerns human cryopreserved hepatocytes. In words: Stability in human cryopreserved hepatocytes with or without CYP1A2 inhibitors (assays 1 to 3). The following applies: for decrease of flubendazole metabolism in the presence of the inhibitor: cryopreserved human hepatocytes, 1 µM flubendazole, over all inhibitor concentrations tested; for class of CYP1A2 inhibitor of flubendazole metabolism: human hepatocytes ex vivo. Here is the method: as §1, §2, §3

For data set [2] the following is noted: humans, cited from earlier work.
The subject of a further data set is human liver microsomes. As to conditions: cited from earlier work.

Where two headings read alike, the source gives them in different places.

In the data set “in vitro” (CLint), `CCOc1ccc2ccc(=O)oc2c1` gave a hepatocyte CLint at 1 µM of 25.4 µL/min/1e6 cells. This molecule gave a half-life at 1 µM in the data set “in vitro” of 54.5 min.
As to `COCCCC/C(=N\OCCN)c1ccc(C(F)(F)F)cc1` [Fluvoxamine, fluvoxamine], in data set [1], the “decrease of flubendazole metabolism in the presence of the inhibitor” value is “at least 2.2 fold” and the “class of CYP1A2 inhibitor of flubendazole metabolism” value was “strong (inhibits intrinsic clearance (CLint) of flubendazole in human hepatocytes ex vivo by ≥five-fold)”.
For the molecule `Cc1nc2c([nH]1)c(=O)n(C)c(=O)n2Cc1ccco1` [Furafylline, furafylline], in data set [2] (Tarrus et al., 1987), the “increase in elimination half-life of caffeine” value is given as 7-10 fold. In data set [1], the “decrease of flubendazole metabolism in the presence of the inhibitor” value is on record as “at least 4.2 fold” and the “class of CYP1A2 inhibitor of flubendazole metabolism” value is listed as “strong (inhibits intrinsic clearance (CLint) of flubendazole in human hepatocytes ex vivo by ≥five-fold)”.
For `CCC[S+]([O-])c1ccc2[nH]c(NC(=O)OC)nc2c1` (stereo not drawn) [Ricobendazole, albendazole sulfoxide], the “turnover in human liver microsomes” value in the data set on human liver microsomes is recorded as “low turnover”.
`O=c1ccc2ccc(O)cc2o1` [Umbelliferone, umbelliferone]: in data set [1] (human, hepatocytes, 1 µM), the CLint came to 131±9.59 µL/min/10^6 cells and the t½ turned out to be 10.5 min. Besides, in the data set “in vitro” (CLint), the hepatocyte CLint at 1 µM is 136 ± 8.14 µL/min/1e6 cells. In addition, in “in vitro” (intrinsic clearance), the hepatocyte CLint at 1 µM was 129 ± 2.93 µL/min/1e6 cells. Also, in the data set “in vitro”, the half-life at 1 µM is 10.2 min.
Consider `Cn1c(=O)c2c(ncn2C)n(C)c1=O` [caffeine], for which the elimination half-life in data set [2] (with furafylline) is 50 h; in data set [2] (without furafylline), 5 to 7 h.
